Reference: DBAASP
Converted amounts (≈) assume the structure as drawn. “And” between values parts separate entries of the source, which are not always exact repeats. Equal entries are not always repeated. Each block holds one compound with its values, some of them ahead of it.

What was measured:
Assay in all cases: ≥ marks a high value that may be exact or a test limit, other limits are often not marked, values filed in µg/mL are converted to µM
Escherichia coli 170 = system: Escherichia coli 170
[1] = system: Klebsiella pneumoniae 913
[2] = system: Enterobacter cloacae 2524
[3] = system: Pseudomonas aeruginosa 4677
[4] = system: Enterobacter cloacae 6780
Acinetobacter baumannii = system: Acinetobacter baumannii
[5] = system: Escherichia coli ATCC 25922
[6] = system: Pseudomonas corrugata DSM 7228
[7] = system: Pseudomonas syringae pv. syringae DSM 10604
[8] = system: Clavibacter michiganensis subsp. michiganensis DSM 46294
[9] = system: Pectobacterium carotovorum subsp. carotovorum DSM 30168
[10] = system: Xanthomonas vesicatoria DSM 50861
[11] = system: Staphylococcus aureus 90857
[12] = system: Pseudomonas syringae pv. tomato DC3000
Pseudomonas aeruginosa = system: Pseudomonas aeruginosa
Staphylococcus aureus = system: Staphylococcus aureus
[13] = system: Staphylococcus aureus ATCC 25923
[14] = system: Mycobacterium tuberculosis H37Rv
[15] = system: Enterococcus faecalis ATCC 19433
Listeria monocytogenes = system: Listeria monocytogenes
[16] = system: Micrococcus luteus ATCC 10420
Escherichia coli O157 = system: Escherichia coli O157
Salmonella typhimurium = system: Salmonella typhimurium
[17] = system: Escherichia coli ATCC 25404
[18] = system: Staphylococcus epidermidis ATCC 9709
[19] = system: Staphylococcus aureus ATCC 12600
Botrytis cinerea = system: Botrytis cinerea
[20] = system: Candida albicans ATCC 10231
[21] = system: Escherichia coli ATCC 11775
[22] = system: Staphylococcus aureus ATCC 43300
[23] = system: Staphylococcus aureus ATCC 29213
[24] = system: Staphylococcus aureus ATCC 9144
[25] = system: Escherichia coli DH5alpha
[26] = system: Escherichia coli ATCC 10536
Bacillus megaterium Bm11 = system: Bacillus megaterium Bm11
[27] = system: Staphylococcus aureus Cowan 1
Staphylococcus capitis 1 = system: Staphylococcus capitis 1
[28] = system: Yersinia pseudotuberculosis YPIII

Structure (SMILES): CC[C@H](C)[C@H](NC(=O)[C@H](CCCN=C(N)N)NC(=O)[C@H](Cc1c[nH]c2ccccc12)NC(=O)[C@@H](NC(=O)[C@@H](NC(=O)[C@H](CC(C)C)NC(=O)[C@H](Cc1c[nH]c2ccccc12)NC(=O)[C@H](CCCN=C(N)N)NC(=O)[C@H](CCC(N)=O)NC(=O)[C@@H](N)C(C)C)[C@@H](C)CC)C(C)C)C(=O)N[C@@H](CCCN=C(N)N)C(=O)N[C@@H](CCCCN)C(N)=O [VQRWLIVWRIRK]
MIC (Pseudomonas aeruginosa): 11.5 µM (≈ 19 µg/mL)
MIC (Staphylococcus aureus): 3.02 µM (≈ 5 µg/mL)
MIC [13]: 77.4 µM (≈ 128 µg/mL)
MIC [14]: 17.7 µM (≈ 29.3 µg/mL)
MIC [15]: ≥ 38.7 µM

Structure (SMILES): CC(C)C[C@H](NC(=O)[C@H](CC(C)C)NC(=O)[C@H](CCCCN)NC(=O)[C@H](CO)NC(=O)[C@H](CC(C)C)NC(=O)[C@H](C)NC(=O)[C@H](CCCCN)NC(=O)[C@H](Cc1c[nH]c2ccccc12)NC(=O)[C@H](CC(C)C)NC(=O)[C@H](C)NC(=O)CNC(=O)[C@H](CC(C)C)NC(=O)[C@@H](N)Cc1ccccc1)C(=O)O [FLGALWKALSKLL]
MIC (Listeria monocytogenes): 4 µM (≈ 5.84 µg/mL)
MIC [16]: 2 µM (≈ 2.92 µg/mL)
MIC (Escherichia coli O157): ≥ 64 µM
MIC (Salmonella typhimurium): ≥ 64 µM
MIC [13]: 4 µM (≈ 5.84 µg/mL)
MIC [17]: ≥ 64 µM
MIC [18]: 4 µM (≈ 5.84 µg/mL)

Structure (SMILES): CC(C)C[C@H](NC(=O)[C@H](CC(C)C)NC(=O)[C@H](CO)NC(=O)[C@H](CCC(N)=O)NC(=O)[C@@H](NC(=O)[C@@H](NC(=O)[C@H](CCCCN)NC(=O)[C@@H]1CCCN1C(=O)[C@H](CC(=O)O)NC(=O)[C@@H](N)CC(C)C)C(C)C)C(C)C)C(N)=O [LDPKVVQSLL]
MIC [19]: ≥ 200 µM
MIC (Botrytis cinerea): ≥ 200 µM
MIC [20]: > 200 µM
MIC [21]: ≥ 200 µM

Structure (SMILES): CC(C)C[C@H](NC(=O)[C@H](CC(C)C)NC(=O)[C@H](Cc1cnc[nH]1)NC(=O)[C@H](CO)NC(=O)[C@H](CC(C)C)NC(=O)[C@H](C)NC(=O)[C@H](CCCCN)NC(=O)[C@H](Cc1ccccc1)NC(=O)[C@H](CC(C)C)NC(=O)[C@H](C)NC(=O)CNC(=O)[C@H](CC(C)C)NC(=O)[C@@H](N)Cc1ccccc1)C(=O)O [FLGALFKALSHLL]
MIC (Listeria monocytogenes): 8 µM (≈ 11.4 µg/mL)
MIC [16]: 8 µM (≈ 11.4 µg/mL)
MIC (Escherichia coli O157): ≥ 64 µM
MIC (Salmonella typhimurium): ≥ 64 µM
MIC [22]: 4 µM (≈ 5.72 µg/mL)
MIC [17]: ≥ 64 µM
MIC [23]: 8 µM (≈ 11.4 µg/mL)
MIC [18]: 8 µM (≈ 11.4 µg/mL)

Structure (SMILES): CC[C@H](C)[C@H](NC(=O)[C@H](CC(C)C)NC(=O)[C@@H]1CCCN1C(=O)[C@H](CC(C)C)NC(=O)[C@@H](N)Cc1ccccc1)C(=O)NCC(=O)N[C@@H](CCCN=C(N)N)C(=O)N[C@H](C(=O)N[C@@H](CC(C)C)C(=O)N[C@@H](CO)C(=O)NCC(=O)N[C@@H](C)C(=O)N[C@@H](CC(C)C)C(N)=O)C(C)C [FLPLIGRVLSGAL]
MIC (Bacillus megaterium Bm11): 20 µM (≈ 27.1 µg/mL)
MIC [27]: ≥ 40 µM
MIC (Staphylococcus capitis 1): ≥ 40 µM
MIC [20]: 20 µM (≈ 27.1 µg/mL)
MIC [28]: ≥ 40 µM
MIC [5]: > 40 µM

Now from value to compound:

MIC (Escherichia coli 170): ≥ 50 µM
MIC [1]: ≥ 50 µM
MIC [2]: 12.5 µM (≈ 24.6 µg/mL)
MIC [3]: ≥ 50 µM
MIC [4]: ≥ 50 µM
MIC (Acinetobacter baumannii): ≥ 50 µM
MIC [5]: > 50 µM
Structure (SMILES): CC(C)C[C@H](NC(=O)[C@H](CCCCN)NC(=O)[C@H](CCC(N)=O)NC(=O)[C@@H](NC(=O)[C@@H](NC(=O)[C@H](CC(N)=O)NC(=O)[C@H](C)NC(=O)[C@@H](NC(=O)[C@@H](N)CCCCN)C(C)C)[C@@H](C)O)C(C)C)C(=O)N[C@@H](CCCCN)C(=O)N[C@@H](CCCN=C(N)N)C(=O)N[C@@H](CCCCN)C(=O)N[C@@H](C)C(=O)N[C@@H](CCCCN)C(=O)N[C@@H](CC(N)=O)C(=O)N[C@@H](C)C(=O)N[C@H](C(=O)N[C@@H](C)C(=O)O)C(C)C [KVANTVQKLKRKAKNAVA]

MIC [6]: 1.63 µM (≈ 2.5 µg/mL)
MIC [7]: 0.163 µM (≈ 0.25 µg/mL)
MIC [8]: 3.25 µM (≈ 5 µg/mL)
MIC [9]: 6.51 µM (≈ 9.99 µg/mL)
MIC [10]: 1.63 µM (≈ 2.5 µg/mL)
MIC [11]: ≥ 62.5 µM
MIC [12]: 6.51 µM (≈ 9.99 µg/mL)
Structure (SMILES): CC[C@H](C)[C@H](NC(=O)[C@H](CC(C)C)NC(=O)[C@H](CCCN=C(N)N)NC(=O)[C@H](CCCCN)NC(=O)[C@@H](NC(=O)[C@@H](NC(=O)[C@H](CCCCN)NC(=O)[C@@H](NC(=O)[C@H](CCCCN)NC(=O)[C@H](CCCCN)NC(=O)[C@H](CCCCN)NC(=O)[C@@H](N)CCCN=C(N)N)[C@@H](C)CC)[C@@H](C)CC)[C@@H](C)CC)C(N)=O [RKKKIKIIKRLI]

MIC [6]: 0.977 µM (≈ 2.5 µg/mL)
MIC [7]: 0.391 µM (≈ 1 µg/mL)
MIC [8]: 0.0391 µM (≈ 0.1 µg/mL)
MIC [9]: 3.91 µM (≈ 10 µg/mL)
MIC [10]: 0.0391 µM (≈ 0.1 µg/mL)
MIC [11]: 2 µM (≈ 5.11 µg/mL)
MIC [12]: 0.977 µM (≈ 2.5 µg/mL)
Structure (SMILES): CC[C@H](C)[C@H](NC(=O)[C@H](CC(C)C)NC(=O)[C@H](CCCCN)NC(=O)[C@@H](NC(=O)[C@@H](NC(=O)[C@H](CC(C)C)NC(=O)[C@H](CCCCN)NC(=O)[C@H](CC(C)C)NC(=O)[C@@H](NC(=O)[C@H](CCCCN)NC(=O)[C@@H](NC(=O)[C@H](CC(C)C)NC(=O)[C@H](CCCCN)NC(=O)[C@H](CCCN=C(N)N)NC(=O)[C@H](CCCN=C(N)N)NC(=O)[C@@H](N)CCCCN)[C@@H](C)CC)[C@@H](C)CC)[C@@H](C)CC)[C@@H](C)CC)C(=O)N[C@@H](CCCN=C(N)N)C(=O)N[C@@H](CCCCN)C(=O)N[C@@H](CCCCN)C(=O)N[C@@H](CCCN=C(N)N)C(N)=O [KRRKLIKILKLIIKLIRKKR]

MIC [24]: 2.7 µM (≈ 8.48 µg/mL)
MIC [25]: 2.9 µM (≈ 9.11 µg/mL)
MIC [26]: 2.7 µM and 7.2 µM
Structure (SMILES): CC[C@H](C)[C@H](NC(=O)[C@@H](NC(=O)[C@@H]1CCCN1C(=O)[C@H](CO)NC(=O)[C@H](C)NC(=O)[C@H](CCCCN)NC(=O)[C@H](CCCCN)NC(=O)[C@H](Cc1ccccc1)NC(=O)[C@H](C)NC(=O)[C@H](CCCCN)NC(=O)[C@H](CCCCN)NC(=O)[C@H](Cc1ccccc1)NC(=O)[C@H](CCCCN)NC(=O)[C@H](CCCCN)NC(=O)[C@H](CCCN=C(N)N)NC(=O)[C@H](Cc1ccccc1)NC(=O)[C@H](CCCN=C(N)N)NC(=O)[C@H](CCCCN)NC(=O)[C@H](Cc1ccccc1)NC(=O)[C@H](CCCN=C(N)N)NC(=O)CN)C(C)C)C(=O)N1CCC[C@H]1C(=O)N[C@@H](CC(C)C)C(=O)N[C@@H](CC(C)C)C(=O)N[C@@H](Cc1cnc[nH]1)C(=O)N[C@@H](CC(C)C)C(N)=O [GRFKRFRKKFKKAFKKASPVIPLLHL]
